The values that follow are results of earlier work, collected in US9662344B2, “Carnitine retention” (The University of Nottingham, priority 2003, dated 2017).

Where two headings read alike, the source gives them in different places.

Test in series [1]: not given
The source holds these as a separate data set.

Series [2] relates to skeletal muscle carnitine uptake. As to conditions: isolated cells (Georges et al., 2000).
Where [3] appears, read: oral doses of L-carnitine between 2 and 6 g.

With `C[N+](C)(C)C[C@H](O)CC(=O)[O-]` [L-carnitine], the “plasma carnitine concentration of maximum renal reabsorption” value (above this the excess is excreted in urine) was 60 to 100 µmol/L. Also, under setting [3], the bioavailability result is “less than 20%” and the “time of peak plasma concentrations after ingestion” value is around 3 h. Besides, the “resting skeletal muscle carnitine content” value in series [1] (6 g every day for up to 2 weeks (Vukovich et al 1994)) is listed as “no significant increase”. Further, the VO2 max result in series [1] (competitive walkers, oral 4 g every day for 2 weeks (Marconi et al 1985)) was “slight but significant increase”. Also, the “effect on VO2 max, RQ, maximal exercise, fatty acid utilisation, glucose utilisation, lactate, perceived exertion, or heart rate” value in series [1] (oral 3-5 g L-carnitine over 5-28 days) is reported as “no effect”. For the same compound, in series [1] (single dose 2 g orally an hour before exercise (Vecchiet et al 1990)), the VO2 max result is reported as “increase”. Also, the Km in series [2] was 6.4 µM.

In general, Km refers to the concentration of substrate that gives half-maximal velocity.
